Several values for one entry are separate records, joined by “and”; a condition that tells them apart may be missing. Equal entries are not always repeated.
How the values were obtained:
[1] = system: FFA and "Triglyceride" lipid synthesis; experiment: in vivo topical treatment of rats, ^14 C-acetate incorporation into FFA and "triglyceride" lipid (thin layer chromatography fractions); set-up: species or system rat
Procedure: (§1) Ten, 3 week male weanling rats, clipped on left and right flanks, were divided into two groups of five animals. One group was untreated on the left flank while the right flank received the test solution (1 mg/ml biotin sulphone in 70% ethanol:30% water) twice a day (once per day at weekends) for six weeks. The second group received the ethanol/water carrier on the left flank and the test solution on the right. At the end of the treatment the rats were killed, skin removed and divided approximately into epidermis and dermis using a 0.2 mm keratatome cut. Samples of dermis containing most of the sebaceous tissue from either untreated (UN), vehicle (V) or test (T) treated skin were incubated in a nutrient medium (basal eagles medium +10% foetal calf seru, 20 mM hepes pH 7.4, antibiotics, 100 μM sodium acetate containing 1 μCi/ml sodium (1-^14 C) acetate for 19 hours at 37° C. The ^14 C-acetate is metabolically incorporated into lipids and gives a "snap shot" of the lipid synthesis profile over the 19 hour time period. At the end of the incubation samples were washed in ice cold medium without ^14 C-acetate, quenched in ice cold 5% trichloroacetic acid (TCA), homogenised and centrifuged to separate insoluble residue from TCA soluble material ("TCA" fraction). The TCA fraction contains nucleo dtides, small metabolites especially succinate, amino acids, small peptides and free ^14 C-acetate. Lipids were extracted in chloroform:methanol and subject to Folch washing essentially as described by Prottey el al., Brit. J. Dermatol. (1972) 87, 586-607 generating the following fractions : "lipids", "aqueous methanol" containing only a small proportion of skin lipids with a very low ^14 C count and an extracted "solid residue". The total ^14 C count in all these fractions was determined.
The radioactive lipids were fractionated into free fatty acids (FFA) monoglycerides (MG), diglycerides (trace only) and triglyerides (TG) using a standard, neutral solvent, thin layer chromatography system.
However ^14 C-acetate is also incorporated into the cholesterol synthetic pathway which should be largely unaffected by the biotin sulphone treatment. This will cause a "dilution" of the reduction seen above. Accordingly, the lipids whose synthesis is dependent on acetyl-SCoA-carboxylase have been isolated. These are free fatty acids (FFA), monoglyceride (MG), diglyeride (trace) triglyceride (TG). It is predicted that a greater reduction in the incorporation of ^14 C-acetate into "triglyceride" lipid should now be observed. As fatty acids are the primary product made by the acetyl-SCoA-carboxylase pathway in the sebaceous gland, results for this lipid class have been included separately, as well as for total "triglyceride" lipid; values of six of the rats are given in Table 3 below: […]

[2] = system: ^14 C-acetate uptake into dermal lipids; experiment: in vivo topical treatment of rats, ^14 C-acetate uptake into dermal lipids; set-up: species or system rat
Procedure: as §1
The following ratio provides a measure of lipid synthesis per unit volume of skin, that is the total ^14 C-acetate uptake into lipids (i.e. amount of lipid synthesis) divided by the ^14 C-acetate uptake into the remaining tissue fractions (i.e. a measure of sample size). (Remaining tissue="TCA" fraction+"solid residue").

[3] = system: acetyl-SCoA-carboxylase; experiment: acetyl-SCoA-carboxylase activity in cultured human dermal fibroblasts (fixation of ^14 C-sodium bicarbonate into protein); format: cell-based
Procedure: In preliminary experiments the ability of biotin sulphone to reduce the activity of acetyl-SCoa-carboxylase in an in vitro assay was assessed using cultured human dermal fibroblasts as described in Ghneim et al (1981) Biochem. Soc. Trans. 9, 405-6 and references therein. Human dermal fibroblasts were maintained in culture for 3 days with 1 μM biotin sulphone in the presence of a nutrient medium containing 10% foetal calf serum. The level of naturally occurring biotin was about 10 nM. Enzyme activity was assayed in the cell pellet by the fixation of ^14 C-sodium bicarbonate into protein in the presence of acety-CoA under appropriate conditions. Control experiments were done in the absence of biotin sulphone and enzyme activities were calculated with respect to protein.

[4] = biotin sulphone treatment, rats
[5] = individual rats, 1 = 41,151 DPM ^14 C-acetate incorporated into lipid, corrected for sample size, topical 1 mg/ml, six weeks

## O=C(O)CCCC[C@H]1[C@H]2NC(=O)N[C@H]2CS1(=O)=O [biotin sulphone]
[1]; average of six rats, 1 = 41,151 DPM ^14 C-acetate, control Av. 1.50
  FFA synthesis, Test, Av.: 0.91
[1]; average of six rats, 1 = 41,151 DPM ^14 C-acetate, control Av. 18.24
  "Triglyceride" lipid synthesis (sum of FFA + MG + TG), Test, Av.: 12.94
[1]; average, Test vs V + UN
  change of "Triglyceride" lipid synthesis vs control: -29%
  change of FFA synthesis vs control: -39%
[1]; [4]
  reduction of "Triglyceride" (FFA+MG+TG) synthesis: 29%
  reduction of denovo FFA synthesis: 39%
[1]; [5]
  "Triglyceride" lipid synthesis (sum of FFA + MG + TG), Test: 13.93 and 8.58 and 15.17 and 15.38 and 14.74 and 9.85
  FFA synthesis, Test: 0.78 and 0.41 and 0.60 and 1.67 and 1.22
[2]; average of ten rats, control (UN or V) Av. 0.59
  Av. Test ratio: ^14 C-acetate uptake into lipids divided by uptake into remaining tissue: 0.49
[2]; average, Test vs UN or V
  change of Av. Test ratio vs control: -18%
[2]; individual rats A-J, 1 mg/ml in 70% ethanol:30% water, topical, twice a day, six weeks, dermis incubated 19 hours at 37° C.
  Test ratio: ^14 C-acetate uptake into lipids divided by uptake into remaining tissue (TCA fraction + solid residue): 0.43 and 0.23 and 0.59 and 0.44 and 0.52 and 0.53 and 0.58 and 0.39 and 0.73
[2]; topical application, ten rats
  overall reduction in ^14 C-acetate uptake into dermal lipids: 18%
[3]; 1 μM biotin sulphone, 3 days, 10% foetal calf serum, control 4.46
  nCi ^14 C-bicarbonate fixed per mg protein: 3.26 nCi per mg protein
[3]; 1 μM biotin sulphone, 3 days, control = 100
  Acetyl-SCoA-carboxylase activity (%): 73%
[3]; culture in the presence of 1 μM biotin sulphone, vs control, 4320 min
  reduction in acetyl-SCoA-carboxylase activity: 27%
